SMILES strings stand for the structures. Like-named read-outs stand apart in the source and are kept apart here.

The values below come from US20250213558A1, “T-TYPE CALCIUM CHANNEL MODULATORS COMPRISING A PIPERAZINE OR 1,4-DIAZEPANE CORE AND METHODS OF USE THEREOF” (Praxis Precision Medicines, Inc., priority 2022, published 2025).

The target in the test is T1, Human Cav3.1 calcium channel (Homo sapiens, UniProt O43497).
T1 construct: expressed in transfected cells; host or cells: HEK-293 natClytin/TASK1+Cav3.1 cell line
The experiment in a line: Human Cav3.1 calcium channel patch clamp assay (SyncroPatch 384PE; single point and IC50, voltage dependent block). The format is cell-based. Conditions: for % Inhibition (Single Point Data): patch clamp. Summed up:
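Automated whole-cell patch clamp at room temperature, cells held at −120 mV; 100 ms step to −20 mV (resting block), then 1600 ms at −65 mV and a second −20 mV step (voltage-dependent block), every 15 s. Peak currents averaged over last 3 sweeps; % inhibition relative to nickel-sensitive current.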

Where [1] appears, read: Testing Conc 1.25, HEK-293 natClytin/TASK1+Cav3.1 cell line.
Where [2] appears, read: voltage dependent block (VDB), HEK-293 natClytin/TASK1+Cav3.1 cell line, read-out: Cav3.1 IC50.
The mark [3] stands for this setting: Testing Conc 1, HEK-293 natClytin/TASK1+Cav3.1 cell line.

T1 sequence (O43497 whole entry): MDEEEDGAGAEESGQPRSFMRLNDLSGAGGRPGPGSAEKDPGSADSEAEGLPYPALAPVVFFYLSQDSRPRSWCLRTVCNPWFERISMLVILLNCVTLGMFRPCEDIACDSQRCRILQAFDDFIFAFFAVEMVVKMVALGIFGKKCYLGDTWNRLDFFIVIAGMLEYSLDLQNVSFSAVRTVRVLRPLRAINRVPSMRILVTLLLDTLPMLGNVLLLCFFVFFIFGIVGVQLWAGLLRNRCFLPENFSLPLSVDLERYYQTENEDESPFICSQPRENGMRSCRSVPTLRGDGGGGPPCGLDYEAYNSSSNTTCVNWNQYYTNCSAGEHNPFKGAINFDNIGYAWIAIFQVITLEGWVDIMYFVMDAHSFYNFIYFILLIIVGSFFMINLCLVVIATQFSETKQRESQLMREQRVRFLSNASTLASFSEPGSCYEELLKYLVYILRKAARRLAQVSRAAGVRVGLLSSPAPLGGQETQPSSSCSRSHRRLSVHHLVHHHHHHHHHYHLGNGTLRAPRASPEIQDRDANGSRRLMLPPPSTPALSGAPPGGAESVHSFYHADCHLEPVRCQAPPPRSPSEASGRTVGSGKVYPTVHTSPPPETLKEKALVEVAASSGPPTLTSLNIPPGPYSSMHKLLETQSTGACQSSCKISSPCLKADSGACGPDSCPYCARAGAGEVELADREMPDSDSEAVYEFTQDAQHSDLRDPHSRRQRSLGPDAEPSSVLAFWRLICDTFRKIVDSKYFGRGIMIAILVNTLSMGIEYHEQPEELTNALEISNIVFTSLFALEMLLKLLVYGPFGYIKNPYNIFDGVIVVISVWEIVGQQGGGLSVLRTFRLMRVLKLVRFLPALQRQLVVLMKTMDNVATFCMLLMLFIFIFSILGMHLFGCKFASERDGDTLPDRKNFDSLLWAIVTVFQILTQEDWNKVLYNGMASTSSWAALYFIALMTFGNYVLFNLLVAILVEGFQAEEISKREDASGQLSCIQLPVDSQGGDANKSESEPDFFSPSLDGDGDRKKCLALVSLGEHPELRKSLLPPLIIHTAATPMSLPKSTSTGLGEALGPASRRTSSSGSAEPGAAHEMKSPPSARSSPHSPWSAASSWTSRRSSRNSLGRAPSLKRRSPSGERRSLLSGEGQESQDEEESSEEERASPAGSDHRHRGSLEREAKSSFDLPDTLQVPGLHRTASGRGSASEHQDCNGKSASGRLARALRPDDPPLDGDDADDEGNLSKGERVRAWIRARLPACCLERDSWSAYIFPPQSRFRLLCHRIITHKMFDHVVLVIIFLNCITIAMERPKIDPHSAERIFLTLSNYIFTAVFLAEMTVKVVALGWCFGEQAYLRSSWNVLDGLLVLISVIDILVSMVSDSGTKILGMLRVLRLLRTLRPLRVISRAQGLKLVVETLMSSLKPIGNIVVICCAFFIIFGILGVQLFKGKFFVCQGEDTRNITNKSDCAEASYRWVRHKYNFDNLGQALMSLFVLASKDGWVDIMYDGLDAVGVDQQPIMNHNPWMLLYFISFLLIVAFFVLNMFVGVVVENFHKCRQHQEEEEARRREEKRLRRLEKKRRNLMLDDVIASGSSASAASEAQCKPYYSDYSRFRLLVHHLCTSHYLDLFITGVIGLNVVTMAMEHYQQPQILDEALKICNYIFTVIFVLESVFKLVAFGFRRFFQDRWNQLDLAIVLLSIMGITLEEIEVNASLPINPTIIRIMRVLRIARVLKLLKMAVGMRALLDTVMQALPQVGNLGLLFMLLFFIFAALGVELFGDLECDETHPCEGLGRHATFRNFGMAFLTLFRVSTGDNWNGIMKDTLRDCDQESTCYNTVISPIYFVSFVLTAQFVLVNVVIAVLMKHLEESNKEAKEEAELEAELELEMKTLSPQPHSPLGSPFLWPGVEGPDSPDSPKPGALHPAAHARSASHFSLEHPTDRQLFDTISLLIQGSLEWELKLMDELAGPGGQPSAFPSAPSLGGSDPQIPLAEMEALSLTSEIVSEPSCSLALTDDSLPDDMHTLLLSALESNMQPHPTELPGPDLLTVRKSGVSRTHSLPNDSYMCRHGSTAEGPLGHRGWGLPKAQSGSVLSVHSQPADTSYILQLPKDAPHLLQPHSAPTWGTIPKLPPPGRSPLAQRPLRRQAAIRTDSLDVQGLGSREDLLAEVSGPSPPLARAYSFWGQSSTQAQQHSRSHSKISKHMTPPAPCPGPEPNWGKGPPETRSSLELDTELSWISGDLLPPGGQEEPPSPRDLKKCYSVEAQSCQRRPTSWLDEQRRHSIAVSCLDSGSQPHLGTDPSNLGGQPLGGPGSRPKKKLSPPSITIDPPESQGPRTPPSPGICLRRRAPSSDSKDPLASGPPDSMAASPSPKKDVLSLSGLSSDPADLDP

Regarding `CC(C)(C)NC(=O)CN1C[C@@H]2C[C@H]1CN2CC(=O)Nc1cc(F)cc(OC(F)F)c1` [Compound 22], the “% Inhibition (Single Point Data)” value under setting [1] is listed as 97.77%. The 50% inhibitory concentration (IC50) under setting [2] is under 78.2 nM.
For `CC(C)(C)NC(=O)CN1C[C@@H]2C[C@H]1CN2CCNC(=O)C12CC3CC(CC(C3)C1)C2` [Compound 323] the same measures were 17.66% and 3390 nM.
With `CC(C)(C)NC(=O)CN1C[C@@H]2C[C@H]1CN2CC(=O)NC12CC3CC(CC(F)(C3)C1)C2` [Compound 300], the “% Inhibition (Single Point Data)” value under setting [1] is on record as 65.343%. Moreover, the IC50 under setting [2] amounted to 612 nM.
`O=C(CN1CC2CC(C1)N2CC(=O)NC1(C(F)(F)F)CC1)Nc1ccc(F)c(OC(F)F)c1` [Compound 245]: the IC50 turned out to be 97.8 nM. The “% Inhibition (Single Point Data)” value under setting [1] turned out to be 96.987%.
Turning to `CC(C)(C)S(=O)(=O)CCN1C2CC1CN(CC(=O)Nc1cc(F)cc(Cl)c1)C2` [Compound 50], under setting [1], the “% Inhibition (Single Point Data)” value turned out to be 57.816%.
Take `O=C(CN1C[C@@H]2C[C@H]1CN2CC1(F)CCC(F)(F)CC1)NC12CC3CC(CC(C3)C1)C2` [Compound 279]: the “% Inhibition (Single Point Data)” value under setting [1] is 79.691%. The 50% inhibitory concentration (IC50) under setting [2] came to 4020 nM.
Regarding `Cc1ccc(F)c2[nH]c(CN3CC4CC(C3)N4CC(=O)NC(C)(C)C(F)(F)F)nc12` [Compound 144], the concentration for half-maximal inhibition (IC50) amounted to 74.5 nM. Besides, the “% Inhibition (Single Point Data)” value under setting [1] is 98.286%.
As to `C[C@@H](c1nc2c(Cl)cc(F)cc2[nH]1)N1CC2CCC(C1)N2CC(=O)NC(C)(C)C` [Compound 119], the “% Inhibition (Single Point Data)” value under setting [1] is listed as 95.894%.
Consider `CC(c1nc2c(Cl)cc(F)cc2[nH]1)N1CC2CCC(C1)N2CC(=O)NC(C)(C)C` (stereo not shown) [Compound 201], for which the half-maximal inhibitory concentration (IC50) came to 84.2 nM. Further, the “% Inhibition (Single Point Data)” value under setting [1] came out at 95.763%.
Take `CN(C(=O)CN1C2CC1CN(Cc1nc3c(Cl)cc(F)cc3[nH]1)C2)C1(C)CCC1` [Compound 100]: the “% Inhibition (Single Point Data)” value under setting [1] was determined as 88.827%.
On to `CC(C)(C)NC(=O)CN1C2CC1CN(CC(=O)Nc1cc(F)cc(Cl)c1)C2` [Compound 10], for which the “% Inhibition (Single Point Data)” value under setting [1] worked out at 83.732%. Besides, the IC50 under setting [2] was 143 nM.
Consider `CC1(NC(=O)CN2CC3CC2CN3CC(=O)Nc2ccc(F)c(Cl)c2)CC1` (stereo not shown) [Compound 234], for which the “% Inhibition (Single Point Data)” value under setting [1] is reported as 51.647%. In addition, under setting [2], the half-inhibitory concentration (IC50) was determined as 1250 nM.
As for `CC(C)(C)NC(=O)CN1C[C@H]2C[C@@H]1CN2CC(=O)Nc1cc(F)cc(OC(F)F)c1` [Compound 21], the “% Inhibition (Single Point Data)” value under setting [1] is given as 73.828%.
Still for that read-out and setting: with `CC(C)(C)NC(=O)CN1C2CCC1CN(Cc1nc3c(Cl)cc(C#N)cc3[nH]1)C2` [Compound 191] the figure was 97.531%.
As to `O=C(CN1C[C@@H]2C[C@H]1CN2CC(=O)NC1(C(F)(F)F)CC1)Nc1cc(F)c(F)c(Cl)c1` [Compound 347], the 50% inhibitory concentration (IC50) under setting [2] is under 78.2 nM.
`CC(C)(C)NC(=O)CN1CC2CC1CN2CC(=O)Nc1cc(F)cc(Cl)c1` (stereo not shown) [Compound 130]: the “% Inhibition (Single Point Data)” value under setting [1] stood at 92.618%. Also, the IC50 under setting [2] is 121 nM.
On to `Cc1cc(NC(=O)CN2CCN(CC(=O)NC(C)(C)C)CC2)n(C)n1` [Compound 39], for which, under setting [3], the “% Inhibition (Single Point Data)” value is given as 35.477%.
Still for that read-out and setting: with `CC(C)(C)NC(=O)CN1CCCN(CC(=O)Nc2cc(F)cc(Cl)c2)C(=O)C1` [Compound 36] the figure was 45.763%.
In the case of `CC(C)Cc1cc(CNC(=O)CN2C[C@@H]3C[C@H]2CN3CC(=O)NC(C)(C)C)nn1-c1ccccc1` [Compound 302], under setting [1], the “% Inhibition (Single Point Data)” value was found to be 21.003%. In addition, the concentration for half-maximal inhibition (IC50) under setting [2] came to 3320 nM.
Consider `CC(C)(NC(=O)CN1CC2CC1CN2CC(=O)Nc1cc(F)cc(OC(F)F)c1)C(F)(F)F` (stereo not shown) [Compound 55], for which, under setting [1], the “% Inhibition (Single Point Data)” value is on record as 76.829%.
For `Fc1cc(Cl)c2nc(CN3CC4CC(C3)N4CC3CCOCC3)[nH]c2c1` [Compound 117], under setting [1], the “% Inhibition (Single Point Data)” value turned out to be 40.989%. The 50% inhibitory concentration (IC50) under setting [2] stood at 1360 nM.
For `CC(C)(C)NC(=O)CN1C[C@@H]2C[C@H]1CN2CC(=O)Nc1ccn(Cc2ccc(C#N)cn2)n1` [Compound 314], the “% Inhibition (Single Point Data)” value under setting [1] is on record as 5.0515%.
